Results from publication PMC5608804, “Stepwise Evolution Improves Identification of Diverse Peptides Binding to a Protein Target” (Scientific Reports, 2017).

Target: T1, streptavidin (Streptomyces avidinii, UniProt P22629)
T1 construct: purchased GE Healthcare (Little Chalfont, UK)
Assay: Cy5-streptavidin binding on HotSpot discovery array, 5-mer L-peptide library
Settings: for S/B: signal to background ratio
Outline: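 Array of 2,476,099 5-mer peptides (19 amino acids, no cysteine) with Gly-Ser linkers, probed overnight at 4 °C with 0.5 µg/ml Cy5-streptavidin in Tris pH 7.4 buffer containing casein or BSA plus Tween-20. Cy5 fluorescence read at 635 nm; peptides selected by signal-to-background >4 across three arrays.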

[1] = 5-mer L-peptide library array, Cy5-streptavidin, from average of three arrays
[2] = 5-mer L-peptide library, from the average of three arrays
[3] = average of three arrays, L-peptide 5-mer library
[4] = 5-mer L-peptide library array, Cy5-streptavidin
[5] = 5-mer L-peptide library array, Cy5-streptavidin, from the average of three arrays

T1 sequence (P22629 25-183): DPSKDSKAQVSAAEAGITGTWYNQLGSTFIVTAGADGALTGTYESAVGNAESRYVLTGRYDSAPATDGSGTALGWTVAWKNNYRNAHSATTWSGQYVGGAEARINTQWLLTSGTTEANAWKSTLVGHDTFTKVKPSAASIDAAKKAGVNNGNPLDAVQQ

## LYHPQ
[1]
  S/B (signal to background ratio): 211.9

## DHHPM
[1]
  S/B (signal to background ratio): 32.9

## WHGPQ
[2]
  S/B (signal to background ratio): 4.5

## MLAHF [L-amino acid 5-mer array peptide]
[3]
  S/B (signal to background ratio): 7.2
[4]
  S/B: 7.2

## EDHPQ
[1]
  S/B (signal to background ratio): 34.6

## ISHPQ
[1]
  S/B (signal to background ratio): 142.0

## HPMYM
[4]
  S/B: 8.3

## VDHPM
[1]
  S/B (signal to background ratio): 26.0

## MQHPM
[1]
  S/B (signal to background ratio): 43.9

## IAAYH [L-amino acid 5-mer array peptide]
[2]
  S/B (signal to background ratio): 4.8
[3]
  S/B (signal to background ratio): 4.8

## AMHPQ
[1]
  S/B (signal to background ratio): 124.0

## FHPMS
[1]
  S/B (signal to background ratio): 46.0

## HPMRA
[2]
  S/B (signal to background ratio): 4.8

## LSAYH [L-amino acid 5-mer array peptide]
[3]
  S/B (signal to background ratio): 17.7
[4]
  S/B: 17.7

## HQHPM
[1]
  S/B (signal to background ratio): 47.3

## DWDKV [L-amino acid 5-mer array peptide]
[3]
  S/B (signal to background ratio): 5.7
[4]
  S/B: 5.7

## HPQIP
[2]
  S/B (signal to background ratio): 4.0

## MHPQN
[1]
  S/B (signal to background ratio): 120.0

## LTHPQ
[1]
  S/B (signal to background ratio): 150.0

## FIHPQ
[1]
  S/B (signal to background ratio): 152.7

## PYHPQ
[1]
  S/B (signal to background ratio): 151.0

## MHPQK
[4]
  S/B: 9.8

## NKHPM
[1]
  S/B (signal to background ratio): 20.7

## WHPQH
[5]
  S/B (signal to background ratio): 79.3

## QHPQH
[1]
  S/B (signal to background ratio): 52.4

## WSHPQ
[1]
  S/B (signal to background ratio): 215.6

## RNHPM
[1]
  S/B (signal to background ratio): 54.6

## LGAYH [L-amino acid 5-mer array peptide]
[1]
  S/B (signal to background ratio): 52.2
[3]
  S/B (signal to background ratio): 52.2

## HPQSG
[5]
  S/B (signal to background ratio): 90.1

## FRHPQ
[1]
  S/B (signal to background ratio): 211.5

## MAHPQ
[1]
  S/B (signal to background ratio): 140.8

## AHPQT
[4]
  S/B: 18.8

## SKHPQ
[5]
  S/B (signal to background ratio): 66.3

## HPQGQ
[5]
  S/B (signal to background ratio): 73.5

## MVQHF [L-amino acid 5-mer array peptide]
[2]
  S/B (signal to background ratio): 5.2
[3]
  S/B (signal to background ratio): 5.2

## MLHPQ
[1]
  S/B (signal to background ratio): 136.4

## RSHPQ
[1]
  S/B (signal to background ratio): 137.5

## NHPMK
[2]
  S/B (signal to background ratio): 4.7

## HPQGA
[5]
  S/B (signal to background ratio): 92.1

## GHPQK
[4]
  S/B: 13.3

## WFHPM
[5]
  S/B (signal to background ratio): 87.4

## HPWRF
[4]
  S/B: 7.0

## ESHPM
[4]
  S/B: 17.2

## FHHPQ
[1]
  S/B (signal to background ratio): 219.2

## EVHPM
[2]
  S/B (signal to background ratio): 5.0

## QHPQK
[4]
  S/B: 15.8

## TFHPQ
[1]
  S/B (signal to background ratio): 156.9

## HPQGF
[5]
  S/B (signal to background ratio): 63.7

## PHPQA
[1]
  S/B (signal to background ratio): 128.7

## PQPDW
[4]
  S/B: 5.2

## LMHPQ
[1]
  S/B (signal to background ratio): 161.1

## HFHPQ
[1]
  S/B (signal to background ratio): 174.7

## EHPQA
[5]
  S/B (signal to background ratio): 70.0

## WWHPQ
[5]
  S/B (signal to background ratio): 111.4

## HPMQG
[4]
  S/B: 16.2

## GQHPQ
[1]
  S/B (signal to background ratio): 134.5

## LHPQA
[1]
  S/B (signal to background ratio): 128.0

## THPMH
[4]
  S/B: 9.5

## EHPQV
[1]
  S/B (signal to background ratio): 41.0

## GAHPM
[1]
  S/B (signal to background ratio): 34.1

## MKHPM
[1]
  S/B (signal to background ratio): 20.4

## MHPQA
[1]
  S/B (signal to background ratio): 138.1

## YGHPM
[5]
  S/B (signal to background ratio): 108.1

## HPQFG
[1]
  S/B (signal to background ratio): 141.0

## HHPMY
[1]
  S/B (signal to background ratio): 20.0

## DNHPQ
[5]
  S/B (signal to background ratio): 74.6

## KHPQG
[5]
  S/B (signal to background ratio): 73.1

## IHPMA
[5]
  S/B (signal to background ratio): 70.9

## VVHPM
[4]
  S/B: 15.5

## HPMHW
[2]
  S/B (signal to background ratio): 4.9

## FYHPM
[5]
  S/B (signal to background ratio): 99.8

## DWDSW [L-amino acid 5-mer array peptide]
[2]
  S/B (signal to background ratio): 4.9
[3]
  S/B (signal to background ratio): 4.9

## WWHPM
[1]
  S/B (signal to background ratio): 52.3

## AAHPM
[1]
  S/B (signal to background ratio): 35.3

## EVHPQ
[1]
  S/B (signal to background ratio): 44.3

## FWHPQ
[1]
  S/B (signal to background ratio): 176.5

## HPQGK
[1]
  S/B (signal to background ratio): 29.8

## SRHPQ
[1]
  S/B (signal to background ratio): 154.4

## AYHPM
[5]
  S/B (signal to background ratio): 66.7

## HPMHM
[2]
  S/B (signal to background ratio): 4.4

## AHPMA
[5]
  S/B (signal to background ratio): 60.9

## FHPQV
[5]
  S/B (signal to background ratio): 107.2

## LGEYH [L-amino acid 5-mer array peptide]
[1]
  S/B (signal to background ratio): 21.3
[3]
  S/B (signal to background ratio): 21.3

## YDHPQ
[5]
  S/B (signal to background ratio): 116.2

## HPQIS
[4]
  S/B: 8.8

## HPMQN
[4]
  S/B: 8.8

## AHPQI
[4]
  S/B: 15.7

## QYHPQ
[1]
  S/B (signal to background ratio): 195.0

## RFHPM
[5]
  S/B (signal to background ratio): 59.2

## EHPQS
[1]
  S/B (signal to background ratio): 36.4

## HPQNS
[5]
  S/B (signal to background ratio): 112.6

## HPWRY
[4]
  S/B: 11.4

## LAQFH [L-amino acid 5-mer array peptide]
[1]
  S/B (signal to background ratio): 39.7
[3]
  S/B (signal to background ratio): 39.7

## IHPMM
[4]
  S/B: 6.6

## HMHPM
[5]
  S/B (signal to background ratio): 61.8
